Entries after “also recorded” stand apart in the source; their conditions may differ.
Tested on: primary human renal mesangial cells (HRMCs)
Test: Proliferation (BrdU) of HRMCs stimulated with IgA-containing immune complexes from IgAN patients
Format: cell-based
Details: immune complexes purified from three patients with IgA nephropathy
Source text: Primary human mesangial cells in a culture were stimulated with pathogenic galactose deficient (Gd)-IgA containing immune complexes isolated from human IgA nephropathy patients. […] Specifically, pathogenic IgA-containing immune complexes were isolated from serum from either IgA nephropathy patients or age, gender and ethnicity-matched healthy individuals. Frozen serum was purchased from BioIVT and IgA-containing immune complexes were purified using jacalin affinity chromatography. […] Purified IgA-containing immune complexes were concentrated using a 100K Amicon filtration unit and the amount of total IgA and galactose-deficient IgA (Gd-IgA) in the immune complexes was measured by ELISA (ThermoFisher and IBL America, respectively). […] See, e.g., Novak et. al., Kidney International, 67, pp. 504-516; 2005; Novak et. al., Nephrol. Dial. Transplant, 26, pp. 3451-3457; 2011; Liang et. al., Cell Physiol. Biochem., 36, pp. 1793-1808; 2015; Nguyen et. al., Clin. Kidney 1, 12 (2), pp, 232-238; 2019.

CCCCN(CCCC)C(=O)CN1C[C@H](c2ccc3c(c2)OCO3)[C@@H](C(=O)O)[C@@H]1c1ccc(OC)cc1 [atrasentan, (2R,3R,4S)-4-(1,3-benzodioxol-5-yl)-1-[2-(dibutylamino)-2-oxoethyl]-2-(4-methoxyphenyl)pyrrolidine-3-carboxylic acid]
hyperproliferation of HRMCs induced by IgA containing immune complexes: reduces the proliferation; also recorded: significantly attenuated

From patent publication US20220304978A1, “INHIBITING MESANGIAL CELL ACTIVATION” (Chinook Therapeutics, Inc., priority 2019, published 2022)
